Measurements from patent US10100077B2, “6-aryl-9-glycosylpurines and use thereof” (UNIVERZITA PALACKEHO V OLOMOUCI, priority 2014, dated 2018).

Tested on: Arabidopsis wild-type plants (Col-0) detached leaves
Experiment: Differential gene expression study (RNA sequencing) in senescent detached leaves
Conditions: for logFC AT1G02790 Polygalacturonase 4 (PGA4) / logFC AT1G05580 Cation/H(+) exchanger 23 (CHX23) / logFC AT1G10585 Basic helix-loop-helix (bHLH) DNA-binding superfamily protein / logFC AT1G15540 2-oxoglutarate and Fe(II)-dependent oxygenase superfamily protein / logFC AT1G19670 Chlorophyllase-1 (CLH1) / logFC AT1G55560 SKU5 similar 14 (SKS14) / logFC AT1G59860 17.6 kDa class I heat shock protein 1 (HSP17.6A) / logFC AT1G59950 NAD(P)-linked oxidoreductase superfamily protein / logFC AT1G75830 Defensin-like protein 1.1 (PDF1.1) / logFC AT1G76640 Calcium-binding EF-hand family protein (CML39) / logFC AT2G02010 Glutamate decarboxylase 4 (GAD4) / logFC AT2G04460 Transposable element gene / logFC AT2G18150 Peroxidase 15 (PER15) / logFC AT2G21900 WRKY transcription factor 59 (WRKY59) / logFC AT2G26010 Defensin-like protein 1.3 (PDF1.3) / logFC AT2G26020 Defensin-like protein 1.2B (PDF1.2B) / logFC AT2G26695 Ran BP2/NZF zinc finger-like superfamily protein / logFC AT2G28210 Alpha carbonic anhydrase 2 (ATACA2) / logFC AT2G37430 Zinc finger protein ZAT11 / logFC AT2G39030 L-ornithine N5-acetyltransferase (NATA1) / logFC AT2G47040 Pectin methylesterase Vanguard1 (VGD1) / logFC AT2G47050 Plant invertase/pectin methylesterase inhibitor superfamily protein / logFC AT3G05610 Pectinesterase/pectinesterase inhibitor 21 (PME21) / logFC AT3G07820 Pectin lyase-like superfamily protein / logFC AT3G09340 Transmembrane amino acid transporter family protein / logFC AT3G11340 UDP-Glycosyltransferase superfamily protein / logFC AT3G13400 SKU5 similar 13 (SKS13) / logFC AT3G28153 Transposable element gene / logFC AT3G28155 ARM repeat superfamily protein / logFC AT3G44830 Putative phospholipid: diacylglycerol acyltransferase 2 (PDAT2) / logFC AT3G62710 Glycosyl hydrolase family protein / logFC AT4G01390 TRAF-like family protein / logFC AT4G21830 Peptide methionine sulfoxide reductase B7 (MSRB7) / logFC AT4G22030 F-box domain, cyclin-like, F-box domain, Skp2-like protein / logFC AT4G22620 SAUR-like auxin-responsive family protein / logFC AT4G24350 Phosphorylase superfamily protein / logFC AT4G26010 Peroxidase 44 (PER44) / logFC AT4G31950 Cytochrome P450 82C3 (CYP82C3) / logFC AT4G35010 Beta-galactosidase 11 (BGAL11) / logFC AT4G37780 Myb domain protein 87 (MYB87) / logFC AT4G39320 Microtubule-associated protein-related / logFC AT5G03610 GDSL esterase/lipase / logFC AT5G12960 Putative glycosyl hydrolase / logFC AT5G44420 Defensin-like protein 1.2A (PDF1.2A) / logFC AT5G44430 Defensin-like protein 1.2C (PDF1.2C) / logFC AT5G45880 Pollen Ole e 1 allergen and extensin family protein / logFC AT5G52670 Copper transport family protein / logFC AT5G61160 Agmatine coumaroyltransferase (ACT) / logFC AT5G62720 Integral membrane HPP family protein / logFC AT5G63270 RPM1-interacting protein 4 (RIN4) family protein / number of downregulated genes (P≤0.05) / number of upregulated genes (P≤0.05): 10 μM; for number of downregulated genes (P≤0.05) / number of upregulated genes (P≤0.05): vs mock
Experimental: Comparative gene expression analysis in Arabidopsis model was performed to gain information about the reprogramming of gene transcription when senescent leaves were treated with 6-(3-methoxybenzylamino)-9-β-D-arabinofuranosylpurine (3MeOBAPA).
For isolation of total RNA, Arabidopsis wild-type plants (Col-0) were used, which were either treated with 3MeOBAPA or left untreated. Wild-type plants were grown in soil for 30 days, and then leaves of similar size and chlorophyll content were cut and immediately used for the treatment. At least 20 detached leaves were submerged in 1×MS medium supplemented with 10 μM 3MeOBAPA. Control samples were mock treated with DMSO only. After incubation for 6 h or 48 h in the dark, detached leaves were frozen in liquid nitrogen and used for RNA isolation; 150 mg of liquid nitrogen-ground material was used per isolation. cDNA sequencing libraries were prepared with the Illumina TruSeq Stranded mRNA LT Sample Prep Kit (Illumina, San Diego, Calif.) according to standard Illumina's protocols and sequenced on HiSeq 2500 apparatus (50 bp single-end reads). […] To gain insight into the molecular mechanism of 3MeOBAPA action in Arabidopsis we decided to analyze the gene expression patterns via comparison of mock (DMSO)-treated plants with those obtained after i) short time treatment with 3MeOBAPA (6 h) and ii) long time treatment (48 h). This comparison leads to identification of group of genes with similar kinetic of expression and helps to understand possible mechanism of regulation. For data analysis, we performed ab initio method where sequencing reads were mapped to the reference genome.

Compound: COc1cccc(CNc2ncnc3c2ncn3[C@@H]2O[C@H](CO)[C@@H](O)[C@@H]2O)c1 [6-(3-methoxybenzylamino)-9-β-D-arabinofuranosylpurine]
- logFC AT1G02790 Polygalacturonase 4 (PGA4) (6 h): 1.67
- logFC AT1G05580 Cation/H(+) exchanger 23 (CHX23) (6 h): 1.26
- logFC AT1G10585 Basic helix-loop-helix (bHLH) DNA-binding superfamily protein (6 h): 0.38
- logFC AT1G15540 2-oxoglutarate and Fe(II)-dependent oxygenase superfamily protein (6 h): 0.57
- logFC AT1G19670 Chlorophyllase-1 (CLH1) (6 h): 0.63
- logFC AT1G55560 SKU5 similar 14 (SKS14) (6 h): 1.71
- logFC AT1G59860 17.6 kDa class I heat shock protein 1 (HSP17.6A) (6 h): 0.48
- logFC AT1G59950 NAD(P)-linked oxidoreductase superfamily protein (6 h): 1.08
- logFC AT1G75830 Defensin-like protein 1.1 (PDF1.1) (6 h): 1.06
- logFC AT1G76640 Calcium-binding EF-hand family protein (CML39) (6 h): 0.78
- logFC AT2G02010 Glutamate decarboxylase 4 (GAD4) (6 h): 0.55
- logFC AT2G04460 Transposable element gene (6 h): 1.16
- logFC AT2G18150 Peroxidase 15 (PER15) (6 h): 0.68
- logFC AT2G21900 WRKY transcription factor 59 (WRKY59) (6 h): 0.54
- logFC AT2G26010 Defensin-like protein 1.3 (PDF1.3) (6 h): 1.47
- logFC AT2G26020 Defensin-like protein 1.2B (PDF1.2B) (6 h): 1.52
- logFC AT2G26695 Ran BP2/NZF zinc finger-like superfamily protein (6 h): 0.50
- logFC AT2G28210 Alpha carbonic anhydrase 2 (ATACA2) (6 h): 0.85
- logFC AT2G37430 Zinc finger protein ZAT11 (6 h): 0.42
- logFC AT2G39030 L-ornithine N5-acetyltransferase (NATA1) (6 h): 0.56
- logFC AT2G47040 Pectin methylesterase Vanguard1 (VGD1) (6 h): 2.80
- logFC AT2G47050 Plant invertase/pectin methylesterase inhibitor superfamily protein (6 h): 2.31
- logFC AT3G05610 Pectinesterase/pectinesterase inhibitor 21 (PME21) (6 h): 1.80
- logFC AT3G07820 Pectin lyase-like superfamily protein (6 h): 2.22
- logFC AT3G09340 Transmembrane amino acid transporter family protein (6 h): 0.55
- logFC AT3G11340 UDP-Glycosyltransferase superfamily protein (6 h): 0.51
- logFC AT3G13400 SKU5 similar 13 (SKS13) (6 h): 0.82
- logFC AT3G28153 Transposable element gene (6 h): 0.92
- logFC AT3G28155 ARM repeat superfamily protein (6 h): 0.59
- logFC AT3G44830 Putative phospholipid: diacylglycerol acyltransferase 2 (PDAT2) (6 h): 0.38
- logFC AT3G62710 Glycosyl hydrolase family protein (6 h): 1.35
- logFC AT4G01390 TRAF-like family protein (6 h): 0.79
- logFC AT4G21830 Peptide methionine sulfoxide reductase B7 (MSRB7) (6 h): 0.55
- logFC AT4G22030 F-box domain, cyclin-like, F-box domain, Skp2-like protein (6 h): 0.41
- logFC AT4G22620 SAUR-like auxin-responsive family protein (6 h): 0.46
- logFC AT4G24350 Phosphorylase superfamily protein (6 h): 0.64
- logFC AT4G26010 Peroxidase 44 (PER44) (6 h): 0.53
- logFC AT4G31950 Cytochrome P450 82C3 (CYP82C3) (6 h): 0.37
- logFC AT4G35010 Beta-galactosidase 11 (BGAL11) (6 h): 2.03
- logFC AT4G37780 Myb domain protein 87 (MYB87) (6 h): 0.41
- logFC AT4G39320 Microtubule-associated protein-related (6 h): 0.45
- logFC AT5G03610 GDSL esterase/lipase (6 h): 0.42
- logFC AT5G12960 Putative glycosyl hydrolase (6 h): 1.33
- logFC AT5G44420 Defensin-like protein 1.2A (PDF1.2A) (6 h): 1.58
- logFC AT5G44430 Defensin-like protein 1.2C (PDF1.2C) (6 h): 1.75
- logFC AT5G45880 Pollen Ole e 1 allergen and extensin family protein (6 h): 1.45
- logFC AT5G52670 Copper transport family protein (6 h): 0.57
- logFC AT5G61160 Agmatine coumaroyltransferase (ACT) (6 h): 1.13
- logFC AT5G62720 Integral membrane HPP family protein (6 h): 0.44
- logFC AT5G63270 RPM1-interacting protein 4 (RIN4) family protein (6 h): 0.56
- number of downregulated genes (P≤0.05) (6 h): 1119 genes
- number of upregulated genes (P≤0.05) (6 h): 1102 genes
- number of genes downregulated in both groups (6 h and 48 h overlap): 724 genes
- number of genes upregulated in both groups (6 h and 48 h overlap): 1102 genes
- logFC AT1G02790 Polygalacturonase 4 (PGA4) (48 h): 8.59
- logFC AT1G05580 Cation/H(+) exchanger 23 (CHX23) (48 h): 5.46
- logFC AT1G10585 Basic helix-loop-helix (bHLH) DNA-binding superfamily protein (48 h): 4.85
- logFC AT1G15540 2-oxoglutarate and Fe(II)-dependent oxygenase superfamily protein (48 h): 5.63
- logFC AT1G19670 Chlorophyllase-1 (CLH1) (48 h): 6.42
- logFC AT1G55560 SKU5 similar 14 (SKS14) (48 h): 8.75
- logFC AT1G59860 17.6 kDa class I heat shock protein 1 (HSP17.6A) (48 h): 5.47
- logFC AT1G59950 NAD(P)-linked oxidoreductase superfamily protein (48 h): 5.72
- logFC AT1G75830 Defensin-like protein 1.1 (PDF1.1) (48 h): 7.85
- logFC AT1G76640 Calcium-binding EF-hand family protein (CML39) (48 h): 7.06
- logFC AT2G02010 Glutamate decarboxylase 4 (GAD4) (48 h): 5.09
- logFC AT2G04460 Transposable element gene (48 h): 5.43
- logFC AT2G18150 Peroxidase 15 (PER15) (48 h): 7.22
- logFC AT2G21900 WRKY transcription factor 59 (WRKY59) (48 h): 5.81
- logFC AT2G26010 Defensin-like protein 1.3 (PDF1.3) (48 h): 8.23
- logFC AT2G26020 Defensin-like protein 1.2B (PDF1.2B) (48 h): 6.04
- logFC AT2G26695 Ran BP2/NZF zinc finger-like superfamily protein (48 h): 5.90
- logFC AT2G28210 Alpha carbonic anhydrase 2 (ATACA2) (48 h): 5.86
- logFC AT2G37430 Zinc finger protein ZAT11 (48 h): 4.96
- logFC AT2G39030 L-ornithine N5-acetyltransferase (NATA1) (48 h): 5.48
- logFC AT2G47040 Pectin methylesterase Vanguard1 (VGD1) (48 h): 5.89
- logFC AT2G47050 Plant invertase/pectin methylesterase inhibitor superfamily protein (48 h): 5.82
- logFC AT3G05610 Pectinesterase/pectinesterase inhibitor 21 (PME21) (48 h): 5.58
- logFC AT3G07820 Pectin lyase-like superfamily protein (48 h): 6.45
- logFC AT3G09340 Transmembrane amino acid transporter family protein (48 h): 8.54
- logFC AT3G11340 UDP-Glycosyltransferase superfamily protein (48 h): 6.60
- logFC AT3G13400 SKU5 similar 13 (SKS13) (48 h): 5.57
- logFC AT3G28153 Transposable element gene (48 h): 5.70
- logFC AT3G28155 ARM repeat superfamily protein (48 h): 6.06
- logFC AT3G44830 Putative phospholipid: diacylglycerol acyltransferase 2 (PDAT2) (48 h): 4.91
- logFC AT3G62710 Glycosyl hydrolase family protein (48 h): 5.26
- logFC AT4G01390 TRAF-like family protein (48 h): 6.24
- logFC AT4G21830 Peptide methionine sulfoxide reductase B7 (MSRB7) (48 h): 5.95
- logFC AT4G22030 F-box domain, cyclin-like, F-box domain, Skp2-like protein (48 h): 5.02
- logFC AT4G22620 SAUR-like auxin-responsive family protein (48 h): 5.05
- logFC AT4G24350 Phosphorylase superfamily protein (48 h): 6.45
- logFC AT4G26010 Peroxidase 44 (PER44) (48 h): 7.92
- logFC AT4G31950 Cytochrome P450 82C3 (CYP82C3) (48 h): 5.29
- logFC AT4G35010 Beta-galactosidase 11 (BGAL11) (48 h): 5.33
- logFC AT4G37780 Myb domain protein 87 (MYB87) (48 h): 6.88
- logFC AT4G39320 Microtubule-associated protein-related (48 h): 5.09
- logFC AT5G03610 GDSL esterase/lipase (48 h): 4.61
- logFC AT5G12960 Putative glycosyl hydrolase (48 h): 5.26
- logFC AT5G44420 Defensin-like protein 1.2A (PDF1.2A) (48 h): 8.15
- logFC AT5G44430 Defensin-like protein 1.2C (PDF1.2C) (48 h): 8.87
- logFC AT5G45880 Pollen Ole e 1 allergen and extensin family protein (48 h): 5.52
- logFC AT5G52670 Copper transport family protein (48 h): 6.03
- logFC AT5G61160 Agmatine coumaroyltransferase (ACT) (48 h): 5.05
- logFC AT5G62720 Integral membrane HPP family protein (48 h): 5.31
- logFC AT5G63270 RPM1-interacting protein 4 (RIN4) family protein (48 h): 7.11
- number of downregulated genes (P≤0.05) (48 h): 7095 genes
- number of upregulated genes (P≤0.05) (48 h): 7509 genes
